Source: US5614623A, “Diastereomers of 1-(isopropoxycarbonyloxy)ethyl 3-cephem-4-carboxylate and processes for their preparation” (Hoechst Aktiengesellschaft, priority 1991, dated 1997)
Where two headings read alike, the source gives them in different places. One block for each compound: values may come before it.

Legend:
[1] = stability under the conditions of column chromatography; type: physicochemical; details: both diastereomers and the diastereomer mixture
[2] = test system: enzymes endogenous to the body; details: after absorption, by enzymes endogenous to the body; cited from earlier work
[3] = various animal species and man; cited from earlier work
[4] = recovery rate of the cephalosporin with free carboxyl group in the urine of dogs after oral administration of the diastereomeric prodrug ester (enteral absorption); type: in vivo; details: for bioavailability: comparison between the diastereomers / with the diastereomer mixture of cefpodoxime proxetil
[5] = diastereomers; T. Nishimura et al., The Journal of Antibiotics 40, 81-90 (1987); cited from earlier work

stability [1]: unstable
SMILES: COCC1=C(C(=O)OC(C)OC(=O)OC(C)C)N2C(=O)[C@@H](NC(=O)/C(=N\OC)c3csc(N)n3)[C@H]2SC1 (mixture of isomers) [cefpodoxime proxetil, 1-(Isopropoxycarbonyloxy)ethyl (6R, 7R)-7-[2-(2-aminothiazol-4-yl)-2-(Z)-(methoxyimino)acetamido]-3-methoxymethyl-3-cephem-4-carboxylate (diastereomer mixture, Cefpodoxime Proxetil)]
cleavage to the antibiotically active cephalosporin having a free carboxyl group [2]: rapidly and completely cleaved
enteral absorption [3]: readily enterally absorbed

enteral absorption ([4]; as shown in Table 1): increased enteral absorption
bioavailability ([4]; listed as the more polar of the two diastereomers): higher bioavailability
SMILES: COCC1=C(C(=O)OC(C)OC(=O)OC(C)C)N2C(=O)[C@@H](NC(=O)/C(=N\OC)c3csc(N)n3)[C@H]2SC1 (single isomer, unassigned; diastereomer b) [Example 8]
bioavailability ([4]; listed as the more absorbable diastereomer): higher bioavailability than the diastereomer mixture

SMILES: CC(OC(=O)OC1CCCCC1)OC(=O)C1=C(CSc2nnnn2CCN(C)C)CS[C@@H]2[C@H](NC(=O)Cc3csc(N)n3)C(=O)N12 (stereo partly shown) [cefotiam hexetil]
effect of configuration in the 1-position on the level of enteral absorption [5]: no effect on the level of enteral absorption
